The target of the assay is hQC (Homo sapiens, UniProt Q16769). In words: Fluorometric (fluorescent) assay of hQC inhibition, IC50. The format is biochemical. As for the experimental part: All compounds were immediately tested regarding their activity as hQC inhibitors.
The purity of the compounds was determined by HPLC-MS. The IC50 value against hQC was measured using the fluorescent assay.
All measurements were performed with a BioAssay Reader HTS-7000Plus for microplates (Perkin Elmer) at 30° C. QC activity was evaluated fluorometrically using H-Gln-βNA. The samples consisted of 0.2 mM fluorogenic substrate, 0.25 U pyroglutamyl aminopeptidase (Unizyme, Horsholm, Denmark) in 0.2 M Tris/HCl, pH 8.0 containing 20 mM EDTA and an appropriately diluted aliquot of QC in a final volume of 250 μl. Excitation/emission wavelengths were 320/410 nm. The assay reactions were initiated by addition of glutaminyl cyclase. QC activity was determined from a standard curve of β-naphthylamine under assay conditions. One unit is defined as the amount of QC catalyzing the formation of 1 μmol pGlu-βNA from H-Gln-βNA per minute under the described conditions.
In a second fluorometric assay, QC was activity determined using H-Gln-AMC as substrate. Reactions were carried out at 30° C. utilizing the NOVOStar reader for microplates (BMG labtechnologies). The samples consisted of varying concentrations of the fluorogenic substrate, 0.1 U pyroglutamyl aminopeptidase (Qiagen) in 0.05 M Tris/HCl, pH 8.0 containing 5 mM EDTA and an appropriately diluted aliquot of QC in a final volume of 250 μl. Excitation/emission wavelengths were 380/460 nm. The assay reactions were initiated by addition of glutaminyl cyclase. QC activity was determined from a standard curve of 7-amino-4-methylcoumarin under assay conditions. The kinetic data were evaluated using GraFit sofware.
For inhibitor testing, the sample composition was the same as described above, except of the putative inhibitory compound added. For a rapid test of QC-inhibition, samples contained 4 mM of the respective inhibitor and a substrate concentration at 1 KM. For detailed investigations of the inhibition and determination of Ki-values, influence of the inhibitor on the auxiliary enzymes was investigated first. […] The inhibitory constant was evaluated by fitting the set of progress curves to the general equation for competitive inhibition using GraFit software.

The results in this text go back to patent US7741354B2, “Inhibitors of glutaminyl cyclase” (Probiodrug AG, priority 2006, dated 2010).

Like-named read-outs stand apart in the source and are kept apart here.

Sequence of hQC (Q16769 29-361): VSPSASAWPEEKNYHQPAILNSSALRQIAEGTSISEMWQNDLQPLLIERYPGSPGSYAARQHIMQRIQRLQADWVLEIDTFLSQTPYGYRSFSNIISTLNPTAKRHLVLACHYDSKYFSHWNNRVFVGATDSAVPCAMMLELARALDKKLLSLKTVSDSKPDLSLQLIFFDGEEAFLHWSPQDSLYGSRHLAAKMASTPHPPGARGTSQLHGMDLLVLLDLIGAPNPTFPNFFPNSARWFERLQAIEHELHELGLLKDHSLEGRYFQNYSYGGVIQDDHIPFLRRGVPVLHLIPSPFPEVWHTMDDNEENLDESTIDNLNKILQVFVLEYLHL

Regarding `C/C=C/C=C/C(Nc1ccc2[nH]cnc2c1)c1nnnn1CCc1cccs1` (stereo not shown) [compound 161, (1H-Benzoimidazol-5-yl)-{(2E,4E)-1-[1-(2-thiophen-2-yl-ethyl)-1H-tetrazol-5-yl]-hexa-2,4-dienyl}-amine], the IC50 (hQC inhibition, read-out: IC50) is 5.8 µM. `C=CCn1nnnc1C(NCCCn1ccnc1)c1ccc2[nH]ccc2c1` (stereo not shown) [compound 46, [(1-Allyl-1H-tetrazol-5-yl)-(1H-indol-5-yl)-methyl]-(3-imidazol-1-yl-propyl)-amine]: the IC50 (read-out: IC50) was 7.6 µM. In the case of `CN(C)CCn1nnnc1C(NCCCn1ccnc1)C1CCC=CO1` (stereo not shown) [Compound 38, {(3,4-Dihydro-2H-pyran-2-yl)-[1-(2-dimethylamino-ethyl)-1H-tetrazol-5-yl]-methyl}-(3-imidazol-1-yl-propyl)-amine], the IC50 (purified compound from preparative synthesis, fluorescent assay, read-out: IC50 hQC) stood at 2.88 µM and the IC50 (read-out: IC50) was 0.4 µM.

Turning to `Cc1ccc(C(Nc2ccc3[nH]cnc3c2)c2nnnn2CC2CCCO2)cc1C` (stereo not shown) [compound 83, (1H-Benzoimidazol-5-yl)-{(3,4-dimethyl-phenyl)-[1-(tetrahydro-furan-2-ylmethyl)-1H-tetrazol-5-yl]-methyl}-amine], for the setting “read-out: IC50”, the IC50 was 4.9 µM. On the same count and under the same terms, to `c1ccc2nc(C(NCCCn3ccnc3)c3nnnn3C[C@@H]3CCCO3)ccc2c1` (stereo partly drawn) [compound 14, (3-Imidazol-1-yl-propyl)-(quinolin-2-yl-{1-[(S)-1-(tetrahydro-furan-2-yl)methyl]-1H-tetrazol-5-yl}-methyl)-amine] belongs 2.2 µM. On the same count and under the same terms, in the case of `c1ccc(CC(Nc2ccc3[nH]cnc3c2)c2nnnn2Cc2cccnc2)cc1` (stereo not shown) [compound 73, (1H-Benzoimidazol-5-yl)-[2-phenyl-1-(1-pyridin-3-ylmethyl-1H-tetrazol-5-yl)-ethyl]-amine] it was 5.8 µM. For the compound `COC(=O)c1cccc(C(Nc2ccc3[nH]cnc3c2)c2nnnn2CC2CCCO2)c1` (stereo not shown) [compound 154, 3-{(1H-Benzoimidazol-5-ylamino)-[1-(tetrahydro-furan-2-ylmethyl)-1H-tetrazol-5-yl]-methyl}-benzoic acid methyl ester], the IC50 (hQC inhibition, read-out: IC50) was 5.8 µM. Turning to `COC(=O)Cn1nnnc1C(NCCCn1ccnc1)c1ccc2ccccc2n1` (stereo not shown) [compound 55, {5-[(3-Imidazol-1-yl-propylamino)-quinolin-2-yl-methyl]-tetrazol-1-yl}-acetic methyl ester], the IC50 (read-out: IC50) came to 2.2 µM.

Regarding `Clc1ccc(C(NCCCn2ccnc2)c2nnnn2C[C@@H]2CCCO2)cc1Cl` (stereo partly shown) [compound 10], where the note is “read-out: IC50”, the IC50 turned out to be 4 µM.

For `O=[N+]([O-])c1cc(C(Nc2ccc3[nH]cnc3c2)c2nnnn2Cc2ccc(Cl)cc2)ccc1Cl` (stereo not shown) [compound 197, (1H-Benzoimidazol-5-yl)-[[1-(4-chloro-benzyl)-1H-tetrazol-5-yl]-(4-chloro-3-nitro-phenyl)-methyl]-amine], the IC50 (hQC inhibition, read-out: IC50) was determined as 2.2 µM. Still for that read-out and setting: in the case of `Clc1ccc(C(Nc2ccc3[nH]cnc3c2)c2nnnn2Cc2ccccc2Cl)cc1` (stereo not shown) [compound 127, (1H-Benzoimidazol-5-yl)-[[1-(2-chloro-benzyl)-1H-tetrazol-5-yl]-(4-chloro-phenyl)-methyl]-amine] it was 3.1 µM; in that of `COC(=O)c1cccc(C(Nc2ccc3[nH]cnc3c2)c2nnnn2-c2ccc(C(C)(C)C)cc2)c1` (stereo not shown) [compound 128, 3-{(1H-Benzoimidazol-5-ylamino)-[1-(4-tert-butyl-phenyl)-1H-tetrazol-5-yl]-methyl}-benzoic acid methyl ester], 6.7 µM; in that of `CCOC(=O)C1CCCCC1n1nnnc1C(Nc1ccc2[nH]cnc2c1)c1cc(Cl)ccc1O` (stereo not shown) [compound 169, 2-{5-[(1H-Benzoimidazol-5-ylamino)-(5-chloro-2-hydroxy-phenyl)-methyl]-tetrazol-1-yl}-cyclohexacar-boxylic acid ethyl ester], 7.6 µM. In the case of `COc1cccc(C(Nc2ccc3[nH]cnc3c2)c2nnnn2CC2CCCO2)c1` (stereo not shown) [compound 89, (1H-Benzoimidazol-5-yl)-{(3-methoxy-phenyl)-[1-(tetrahydro-furan-2-ylmethyl)-1H-tetrazol-5-yl]-methyl}-amine], the IC50 (read-out: IC50) was 7.6 µM. `CCOC(=O)C1CCCCC1n1nnnc1C(Nc1ccc2[nH]cnc2c1)c1csc2ccccc12` (stereo not shown) [compound 145]: the IC50 (hQC inhibition, read-out: IC50) came out at 1.3 µM. With `COCCn1nnnc1C(NCCCn1ccnc1)c1ccc2cccc(O)c2n1` (stereo not shown) [compound 40, 2-{(3-Imidazol-1-yl-propylamino)-[1-(2-methoxy-ethyl)-1H-tetrazol-5-yl]-methyl}-quinolin-8-ol], the IC50 (read-out: IC50) was 3.1 µM.

With `CSc1ccc(C(Nc2ccc3[nH]cnc3c2)c2nnnn2CC2CCCO2)cc1` (stereo not shown) [compound 140, (1H-Benzoimidazol-5-yl)-{(4-methylsulfanyl-phenyl)-[1-(tetrahydro-furan-2-ylmethyl)-1H-tetrazol-5-yl]-methyl}-amine], the IC50 (hQC inhibition, read-out: IC50) was found to be 6.7 µM. `CCCOc1cccc(C(Nc2ccc3[nH]cnc3c2)c2nnnn2C2CCCCC2C(=O)OCC)c1` (stereo not shown) [compound 208]: where the note is “hQC inhibition, read-out: IC50”, the IC50 was 2.2 µM. On the same count and under the same terms, to `C/C=C/C=C/C(Nc1ccc2[nH]cnc2c1)c1nnnn1CC1CCCO1` (stereo not shown) [compound 174, (1H-Benzoimidazol-5-yl)-{(2E,4E)-1-[1-(tetrahydro-furan-2-ylmethyl)-1H-tetrazol-5-yl]-hexa-2,4-dienyl}-amine] belongs 8.5 µM. For the compound `Cc1ccc(O)c(C(NCCCn2ccnc2)c2nnnn2C(C)(C)C)c1` (stereo not shown) [compound 59, 2-[(1-tert-Butyl-1H-tetrazol-5-yl)-(3-imidazol-1-yl-propylamino)-methyl]-4-methyl-phenol], the IC50 (read-out: IC50) is 1.3 µM. For `COc1ccc(C(Nc2ccc3[nH]cnc3c2)c2nnnn2Cc2ccc(Cl)cc2)c(C)c1` (stereo not shown) [compound 75, (1H-Benzoimidazol-5-yl)-[[1-(4-chloro-benzyl)-1H-tetrazol-5-yl]-(4-methoxy-2-methyl-phenyl)-methyl]-amine], the IC50 (read-out: IC50) is 2.2 µM. As for `Cc1ccc(O)c(C(NCCCn2ccnc2)c2nnnn2C[C@@H]2CCCO2)c1` (stereo partly drawn) [compound 11, 2-((3-Imidazol-1-yl-propylamino)-{1-[(S)-1-(tetrahydro-furan-2-yl)methyl]-1H-tetrazol-5-yl}-methyl)-4-methyl-phenol], the IC50 (read-out: IC50) came out at 3.1 µM. On to `c1cncc(Cn2nnnc2C(Nc2ccc3[nH]cnc3c2)c2ccc3nsnc3c2)c1` (stereo not shown) [compound 185], for which the half-maximal inhibitory concentration (IC50) (hQC inhibition, read-out: IC50) turned out to be 6.7 µM. Take `c1nc2cc(NC(c3ccc(N4CCCC4)cc3)c3nnnn3CC3CCCO3)ccc2[nH]1` (stereo not shown) [compound 134, (1H-Benzoimidazol-5-yl)-{(4-pyrolidin-1-yl-phenyl)-[1-(tetrahydro-furan-2-ylmethyl)-1H-tetrazol-5-yl]-methyl}-amine]: the IC50 (hQC inhibition, read-out: IC50) was 6.7 µM. In the case of `Brc1cc(Br)cc(C(Nc2ccc3[nH]cnc3c2)c2nnnn2-c2ccc3c(c2)OCCO3)c1` (stereo not shown) [compound 179, (1H-Benzoimidazol-5-yl)-{(3,5-dibromo-phenyl)-[1-(2,3-dihydro-benzo[1,4]dioxin-6-yl)-1H-tetrazol-5-yl]-methyl}-amine], under “hQC inhibition, read-out: IC50”, the IC50 is 4 µM. Regarding `COc1ccc(C(Nc2ccc3[nH]cnc3c2)c2nnnn2CC(=O)N2CCc3ccccc3C2)cc1` (stereo not shown) [compound 209, 2-{5-[(1H-Benzoimidazol-5-ylamino)-(4-methoxy-phenyl)-methyl]-tetrazol-1-yl}-1-(3,4-dihydro-1H-isoquinolin-2-yl)-ethanone], for the setting “hQC inhibition, read-out: IC50”, the IC50 was determined as 4 µM. On to `COCCCn1nnnc1C(NCCCn1ccnc1)c1ccc2ccccc2n1` (stereo not shown) [compound 36, (3-Imidazol-1-yl-propyl)-{[1-(3-methoxy-propyl)-1H-tetrazol-5-yl]-quinolin-2-yl-methyl}-amine], for which the IC50 (read-out: IC50) came out at 3.1 µM. On to `COc1ccccc1C(Nc1ccc2[nH]cnc2c1)c1nnnn1Cc1ccccc1` (stereo not shown) [compound 151], for which the IC50 (hQC inhibition, read-out: IC50) came to 5.8 µM. Still for that read-out and setting: in the case of `O=C1CCCN1CCCn1nnnc1C(Nc1ccc2[nH]cnc2c1)c1cc(Br)cc(Br)c1` (stereo not shown) [compound 176, 1-(3-{5-[(1H-Benzoimidazol-5-ylamino)-(3,5-dibromo-phenyl)-methyl]-tetrazol-1-yl}-propyl)-pyrrolidin-2-one] it was 5.8 µM. As to `CC(C)(C)Cn1nnnc1C(NCCCn1ccnc1)[C@@H]1CCC=CO1` (stereo partly shown) [compound 67], the IC50 (read-out: IC50) amounted to 6.7 µM. Still for that read-out and setting: to `COCCn1nnnc1C(NCCCn1ccnc1)c1cc(C)c(C)cc1C` (stereo not shown) [compound 43, (3-Imidazol-1-yl-propyl)-[[1-(2-methoxy-ethyl)-1H-tetrazol-5-yl]-(2,4,5-trimethyl-phenyl)-methyl]-amine] belongs 7.6 µM.

As for `CCc1ccc(C(Nc2ccc3[nH]cnc3c2)c2nnnn2Cc2ccccc2)s1` (stereo not shown) [compound 133, (1H-Benzoimidazol-5-yl)-[(1-benzyl-1H-tetrazol-5-yl)-(5-ethyl-thiophen-2-yl)-methyl]-amine], the IC50 (hQC inhibition, read-out: IC50) is 3.1 µM. Turning to `c1ccc2oc(C(NCCCn3ccnc3)c3nnnn3C[C@@H]3CCCO3)cc2c1` (stereo partly drawn) [compound 15, (Benzofuran-2-yl-{1-[(S)-1-(tetrahydro-furan-2-yl)methyl]-1H-tetrazol-5-yl}-methyl)-(3-imidazol-1-yl-propyl)-amine], the IC50 (read-out: IC50) is 6.7 µM.
